Where two headings read alike, the source gives them in different places.
Assays:
[1] = target: T1, NLuc-hH2R (Homo sapiens, UniProt P25021); test: NanoBRET saturation binding assay
T1 construct: membrane signal peptide of the murine 5HT3A receptor (N); expressed in transfected cells
Protocol: KG, Wertheim, Germany). The cells were then incubated at 37 °C in a humidified atmosphere (no additional CO2) overnight. […] After 60 min incubation time at 27 °C, 10 μL of the substrate furimazine, which was diluted according to manufacturer's protocol beforehand, were added. After 5 min of equilibration time at 27 °C, the measurement was started. […] After addition of the diluted substrate, the plate was placed inside the reader for 5 min to equilibrate. […] Dissociation experiments were conducted in wells, which have been preincubated with 8 as described above for association experiments. […] All measurements were performed on a TECAN InfiniteLumi plate reader (TECAN, Grödig, Austria) at 27 °C using the Blue2 NB (460 nm ± 35 nm, bandpass) and the Red NB (> 610 nm, longpass) filter combination with an integration time of 100 ms. For the kinetic experiments, integration time was increased to 500 ms for both channels to reduce noise. BRET ratios were calculated by dividing the acceptor emission (red NB) by the donor luminescence (Blue2 NB). For all BRET binding experiments, specific binding was calculated by subtracting non-specific binding from total binding yielding the “corrected BRET ratio”. For saturation binding experiments, total and non-specific binding were fitted simultaneously using the “one-site total and nonspecific binding” fit. Specific binding was fitted accordingly applying the “one-site specific binding” fit. […] The normalized competition binding curves were then fitted with a four-parameter logistic fit yielding pIC50-values. These were transformed into pKi-values using the Cheng-Prusoff equation[38].

[2] = target: T2, hH2R-Gsαs fusion protein (Homo sapiens, UniProt P25021); test: Radioligand competition binding with [3H]UR-DE257 on Sf9 membranes; details: read-out: pKi (RL comp. binding Sf9 membranes) (converted)
T2 construct: made in house; host or cells: Sf9 insect cells (recombinant baculovirus), membrane preparation
T2 sequence (P25021+P63092 fused): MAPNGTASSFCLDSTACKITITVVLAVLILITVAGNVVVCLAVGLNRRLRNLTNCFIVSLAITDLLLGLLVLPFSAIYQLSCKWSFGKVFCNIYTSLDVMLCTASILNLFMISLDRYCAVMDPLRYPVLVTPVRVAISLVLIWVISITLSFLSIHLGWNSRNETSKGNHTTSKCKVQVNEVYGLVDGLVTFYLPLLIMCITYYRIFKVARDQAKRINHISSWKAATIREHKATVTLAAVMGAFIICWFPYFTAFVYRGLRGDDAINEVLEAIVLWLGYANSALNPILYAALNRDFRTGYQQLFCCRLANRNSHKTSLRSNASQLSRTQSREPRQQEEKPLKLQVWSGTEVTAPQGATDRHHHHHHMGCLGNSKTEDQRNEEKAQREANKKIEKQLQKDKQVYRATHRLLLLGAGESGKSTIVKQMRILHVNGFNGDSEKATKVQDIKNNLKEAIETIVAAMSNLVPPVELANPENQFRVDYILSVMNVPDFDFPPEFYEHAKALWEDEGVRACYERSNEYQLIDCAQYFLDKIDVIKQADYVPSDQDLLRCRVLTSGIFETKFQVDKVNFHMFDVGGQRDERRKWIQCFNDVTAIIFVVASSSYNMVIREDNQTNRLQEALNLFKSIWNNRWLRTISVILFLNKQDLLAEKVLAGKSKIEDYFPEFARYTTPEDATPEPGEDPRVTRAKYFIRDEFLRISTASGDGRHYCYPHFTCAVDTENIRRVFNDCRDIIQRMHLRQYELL
Protocol: All data analysis was performed using Prism 5.0c (GraphPad, San Diego, CA, USA).

[3] = Chemical stability in binding buffer (HPLC); type: physicochemical; details: binding buffer pH 7.4, rt, 96 h incubation
Protocol: The chemical stability of the fluorescent H2R ligands UR-KAT478 (8), UR-KAT515 (9) and UR-KAT514 (10) was investigated at physiological pH (7.4) in binding buffer (12.5 mM MgCl2, 1 mM EDTA and 75 mM Tris/HCl, pH 7.4)^1 and in case of UR-KAT514 (10) as well in a mixture of DMSO/binding buffer 1:1. Incubation was started by addition of 27.5 μL of a 2.5 mM solution of the respective compounds in DMSO/Millipore H2O 1:1, which were freshly prepared from a 5 mM stock solution in DMSO, to 522.5 μL of binding buffer or DMSO/binding buffer 1:1 yielding a final concentration of […]. The samples were shaken for up to 4 days at 700 rpm. After indicated time periods, a 70 μL aliquot was taken and diluted with 70 µL of a mixture of MeCN, Millipore H2O and 10% aqueous TFA (60:90:1). Prior to HPLC analysis, the samples were stored at -20 °C. 50 μL of the resulting solution were analyzed by HPLC as described in the experimental section. The absorption was detected at 220 nm. The blank HPLC run was performed under identical conditions without any ligand.

[4] = target: T3, hH2R (Homo sapiens, UniProt P25021); test: Flow cytometric saturation binding assay with HEK293T-hH2R-qs5-HA cells; design: expressed in transfected cells; host or cells: HEK293T-hH2R-qs5-HA cells; details: saturation binding at HEK293T-hH2R-qs5-HA cells; mean ± SEM; read-out: pKd (Flow cytometry) (converted)
T3 sequence (P25021 whole entry): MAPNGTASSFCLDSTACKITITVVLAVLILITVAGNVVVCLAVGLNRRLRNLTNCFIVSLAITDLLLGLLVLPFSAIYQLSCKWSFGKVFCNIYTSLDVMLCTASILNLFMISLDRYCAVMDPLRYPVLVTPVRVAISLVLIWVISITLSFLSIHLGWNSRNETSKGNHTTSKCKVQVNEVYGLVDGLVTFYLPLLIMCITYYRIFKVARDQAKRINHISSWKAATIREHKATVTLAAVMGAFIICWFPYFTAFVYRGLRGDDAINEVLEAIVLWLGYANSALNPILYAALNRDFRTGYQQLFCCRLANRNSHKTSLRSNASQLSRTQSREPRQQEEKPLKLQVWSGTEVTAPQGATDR
Protocol: All flow cytometric measurements were performed with FACSCanto™II flow cytometer (Becton Dickinson, Heidelberg, Germany), equipped with an argon laser (488 nm) and a red diode laser (633 nm) (settings: FCS: A, log, 0 V; SSC: A, log, 252 V; ACP: A,H,W, log, 350 V or PerCP-Cy5-5: A,H, log 485 V or PE: A,H,W, log, 420 V) according to general protocols with minor modifications.^4,5 All measurements were performed in duplicate and recorded either in channel PerCP-Cy5 (Py-1, excitation: 488 nm), APC (BODIPY 630/650, excitation: 633 nm) or PE (TAMRA, excitation: 488 nm). Data acquisition was stopped after 10,000 gated events.
Cell culture and preparation of HEK293T-hH2R-qs5-HA cells was performed as described.^4 Briefly, cells were maintained in 25 or 175 cm^2 flasks (Sarstedt, Nümbrecht, Germany) in a humidified atmosphere (95% air, 5% CO2) at 37 °C using Dulbecco`s Modified Eagle`s Medium supplemented with 2 mM L-glutamine (Sigma-Aldrich, Munich, Germany), 10% FCS, 400 µg/mL geneticin (G418), and 100 µg/mL hygromycin B (AG Scientific, San Diego, CA, USA). On the day of the experiment, cells were detached with trypsin/EDTA (0.05%/0.2%) and centrifuged (500 x g, 5 min). The cell pellet was resuspended in Leibovitz’ L-15 medium containing 1% FCS and the cell density was adjusted to 1 x 10^6 cells/mL. The serial dilutions of the tested fluorescent ligands and famotidine (competitor, for non-specific binding) were prepared in DMSO/H2O (1:1, v/v). All incubation steps were performed in 96-well Primaria^TM plates (CORNING, NY, USA). 200 µL of the adjusted cell suspension were either added to 2 µL of DMSO/H2O (1:1, v/v, total binding) or to 2 µl of famotidine (300-fold excess over the fluorescent ligand, non-specific binding). Incubation was started by addition of 2 µL of the respective fluorescent ligand in different concentrations (100-fold concentrated with respect to the final concentration). […] Samples were transferred to 5 mL polystyrol FACS tubes (Sarstedt, Nümbrecht, Germany) and measured immediately. […]

[5] = target: T3, hH2R; test: β-Arrestin2 recruitment assay (split-luciferase complementation), HEK293T-ARRB2-H2R cells; type: cell-based; design: expressed in transfected cells; host or cells: HEK293T-ARRB2-H2R cell line; details: read-out: pKb (β-arrestin2 recruitment) (converted)

T1 sequence (P25021 whole entry): as above

Kd ([1]; representative NanoBRET saturation isotherm, result from single experiment, HEK293T NLuc-hH2R, read-out: Kd* (single experiment)): 29.4 nM
Kd ([1]; saturation binding, live HEK293T cells stably expressing NLuc-hH2R, mean ± SEM, read-out: pKd (NanoBRET) (converted)): 44.7 nM
Ki [2]: 24 nM
Chemical stability (decomposition) [3]: no decomposition
Kd [4]: 74.1 nM
Kb [5]: 16.6 nM
SMILES: Cc1cc(/C=C/c2cc3c4c(c2)CCCN4CCC3)cc(C)[n+]1CCCCNc1c(NCCCOc2cccc(CN3CCCCC3)c2)c(=O)c1=O [Compound 8, (E)-1-(4-((3,4-Dioxo-2-((3-(3-(piperidin-1-ylmethyl)phenoxy)propyl)amino)cyclobut-1-en-1-yl)amino)butyl)-2,6-dimethyl-4-(2-(2,3,6,7-tetrahydro-1H,5H-pyrido[3,2,1-ij]quinolin-9-yl)vinyl)pyridin-1-ium]

Reference: article PMC7414126 (Scientific Reports, 2020)
